The record followed here is ChEMBL document CHEMBL1255529, “Design, synthesis, and anticancer activities of novel perfluoroalkyltriazole-appended 2'-deoxyuridines” (Bioorg Med Chem Lett, 2010).

In one series the test system is ACHN. As to the kind of experiment: Anticancer activity against human ACHN cells by SRB assay. It counts as functional. The conditions noted are these: for GI50: Homo sapiens, ACHN.
Another series deals with PC-3. The experiment in a line: Anticancer activity against human PC3 cells by SRB assay. The series is classed as functional. The conditions noted are these: for GI50: Homo sapiens, PC-3. (The SRB assay estimates cell density from bound dye.)
In a further series the test system is MDA-MB-231. The experiment in a line: Anticancer activity against human MDA-MB-231 cells by SRB assay. The series is classed as functional. The settings on record: for GI50: Homo sapiens, MDA-MB-231.
Series [1] can be described thus: Antiproliferative activity against human CCD-33Lu.

With `CC(=O)OC[C@H]1O[C@@H](n2cc(-c3cn(CCC(F)(F)C(F)(F)C(F)(F)C(F)(F)C(F)(F)C(F)(F)F)nn3)c(=O)[nH]c2=O)C[C@@H]1OC(C)=O`, the GI in the series with ACHN was 113.8 µM; with PC-3 it was 89.4 µM; in the series on MDA-MB-231, 99.4 µM.
Taken in the same sequence, the figures for `CC(=O)OC[C@H]1O[C@@H](n2cc(-c3cn(CCC(F)(F)C(F)(F)C(F)(F)C(F)(F)C(F)(F)C(F)(F)C(F)(F)C(F)(F)F)nn3)c(=O)[nH]c2=O)C[C@@H]1OC(C)=O` were 110.8 µM, 77.9 µM and 99.1 µM.
For `O=c1[nH]c(=O)n([C@H]2C[C@H](O)[C@@H](CO)O2)cc1-c1cn(CCC(F)(F)C(F)(F)C(F)(F)C(F)(F)C(F)(F)C(F)(F)F)nn1` the same measures were 99.3 µM, 114.5 µM and 106.5 µM.
For `O=c1[nH]c(=O)n([C@H]2C[C@H](O)[C@@H](CO)O2)cc1-c1cn(CCC(F)(F)C(F)(F)C(F)(F)C(F)(F)C(F)(F)C(F)(F)C(F)(F)C(F)(F)F)nn1`, the results for the GI in the series with ACHN, in the series on PC-3 and in the series with MDA-MB-231 were 14.2 µM, 16.7 µM and 15.9 µM, respectively. Besides, the GI50 in the series on ACHN worked out at 8240 nM; in the series with PC-3, 7.75 µM; in the series with MDA-MB-231, 8670 nM. For the same compound, the Activity result in series [1] is “Non-toxic”.
Turning to `O=c1[nH]c(=O)n([C@H]2C[C@H](O)[C@@H](CO)O2)cc1-c1cn(CCC(F)(F)C(F)(F)C(F)(F)C(F)(F)C(F)(F)C(F)(F)C(F)(F)C(F)(F)C(F)(F)C(F)(F)F)nn1`, the figures for the GI in the series on ACHN, with PC-3 and with MDA-MB-231 were 90.8 µM, 89.4 µM and 93.7 µM, respectively.
Taken in the same sequence, the figures for `O=c1[nH]c(=O)n([C@H]2C[C@H](O)[C@@H](CO)O2)cc1-c1cn(CCC(F)(F)C(F)(F)F)nn1` were 96.1 µM, 96.4 µM and 98.7 µM.
Taken in the same sequence, the figures for `O=c1[nH]c(=O)n([C@H]2C[C@H](O)[C@@H](CO)O2)cc1-c1cn(CCC(F)(F)C(F)(F)C(F)(F)C(F)(F)F)nn1` were 116 µM, 97.8 µM and 109.7 µM.
Consider `COc1cccc2c1C(=O)c1c(O)c3c(c(O)c1C2=O)C[C@@](O)(C(=O)CO)C[C@@H]3O[C@H]1C[C@H](N)[C@H](O)[C@H](C)O1` [DOXORUBICIN], for which the GI in the series on ACHN came out at 12.3 µM; in the series on PC-3, 28.5 µM; with MDA-MB-231, 16.5 µM. Besides, the GI50 in the series on ACHN is 220 nM; in the series with PC-3 it was 0.28 µM; in the series with MDA-MB-231, 180 nM.
As to `O=c1[nH]c(=O)n([C@H]2C[C@H](O)[C@@H](CO)O2)cc1F` [FLOXURIDINE], the GI in the series on ACHN stood at 25.8 µM; with PC-3 it was 40.7 µM. Moreover, the GI50 in the series with ACHN is 2100 nM; with PC-3, 4.97 µM; in the series with MDA-MB-231 it was 160 nM.

For orientation: GI50 means the concentration that inhibits growth by half. Low values mean greater sensitivity of the cells, high ones lower sensitivity of the cells.
